From ChEMBL document CHEMBL1135412, “Synthesis and in vitro evaluation of quaternary ammonium derivatives of chlorambucil and melphalan, anticancer drugs designed for the chemotherapy of chondrosarcoma” (J Med Chem, 2002)

How the values were obtained:
[1] = Partition coefficient (logD) (octanol/phosphate buffer); format: physicochemical
B16 [2] = assay: In vitro cytotoxicity activity against B16 cells, by colony forming assay; format: functional, cell-based; conditions: Mus musculus
[3] = In vitro cytotoxicity in chondrosarcoma cell line (H-EMC-SS) by Alamar blue assay; format: functional; conditions: Homo sapiens
[4] = In vitro cytotoxicity in chondrosarcoma cell line (H-EMC-SS) by Hoechst 33342 DNA Fluorometric assay; format: functional; conditions: Homo sapiens
[5] = Comparative cellular uptake study performed on H-EMC-SS (chondrosarcoma cell line); format: functional, Homo sapiens
M4Beu cell line [6] = assay: In vitro cytotoxic activity against M4 Beu cells, by colony forming assay; format: functional, cell-based; conditions: Homo sapiens
M4Beu cell line [7] = assay: Comparative cellular uptake study performed on M4 Beu (melanoma cell line); format: functional, Homo sapiens
[8] = In vitro cytotoxicity activity against M4 Dau, by colony forming assay; format: functional
[9] = Alkylating activity of compound was determined by the NBP assay at 570 nm.; format: functional
[10] = Glutathione-s-transferase activity of the compound, expressed as percentage of control.; format: functional
MCF7S [11] = assay: In vitro cytotoxic activity against MCF7, by colony forming assay; format: functional, cell-based; conditions: Homo sapiens
B16 [12] = assay: In vitro cytotoxicity activity against B16, by colony forming assay; format: functional, cell-based; conditions: Mus musculus
M4Beu cell line [13] = assay: In vitro cytotoxicity activity against M4 Beu, by colony forming assay; format: functional, cell-based; conditions: Homo sapiens
MCF7S [14] = assay: In vitro cytotoxicity activity against MCF7, by colony forming assay; format: functional, cell-based; conditions: Homo sapiens
B16 [15] = assay: In vitro cytotoxic activity against B16, by colony forming assay; format: functional, cell-based; conditions: Mus musculus
[16] = In vitro cytotoxic activity against M4 Dau, by colony forming assay; format: functional
MCF7S [17] = assay: In vitro cytotoxicity activity against MCF-7; format: functional, cell-based; conditions: Homo sapiens
[18] = In vitro cytotoxicity activity against M4 Dau by colony forming assay; format: functional

Compound | logD ([1]; octanol/water) | IC50 (B16 [2]) [nM] | CC50 [3] [nM] | CC50 [4] [nM] | Cellular uptake [5] [pmol/µL] | IC50 (M4Beu cell line [6]) [nM] | Cellular uptake (M4Beu cell line [7]) [pmol/µL] | IC50 [8] [nM] | Alkylating activity [9] | Glutathione-S-transferase activity (% of control) [10] [%] | IC50 (MCF7S [11]) [nM] | logD [1] | IC50 (B16 [12]) [nM] | IC50 (M4Beu cell line [13]) [nM] | IC50 (MCF7S [14]) [nM] | IC50 (B16 [15]) [nM] | IC50 [16] [nM] | IC50 (MCF7S [17]) [nM] | IC50 [18] [nM]
O=C(O)CCCc1ccc(N(CCCl)CCCl)cc1 [CHLORAMBUCIL] | 0.75 | 5100 | 3500 | 2700 | 2.73 | 5100 | 18.4 | 1500 | 30.2 10e3·k | 60.4 | 1700 | – | – | – | – | – | – | – | –
C[N+](C)(C)CCCNC(=O)C(N)Cc1ccc(N(CCCl)CCCl)cc1.[Cl-] (centres undefined) | – | – | 1800 | 1200 | 1.54 | – | 6.82 | 3300 | 15.7 10e3·k | 79 | – | -1.12 | 19500 | 14400 | 900 | – | – | – | –
C[N+](C)(C)CCCNC(=O)CCCc1ccc(N(CCCl)CCCl)cc1.[I-] | – | – | 700 | 600 | 2.97 | 5100 | 16.7 | – | 40.4 10e3·k | 55.4 | 1200 | 0.32 | – | – | – | 8600 | 1300 | – | –
N[C@@H](Cc1ccc(N(CCCl)CCCl)cc1)C(=O)O [MELPHALAN] | – | – | 1600 | 900 | 2.88 | – | 21.9 | – | 10.3 10e3·k | 85.3 | – | 0.11 | 2200 | 1200 | – | – | – | 300 | 500
